Our source for the TGI and GI50 values is PubChem BioAssay (NCI).

“And” between values parts separate entries of the source, which are not always exact repeats. Identical values can stand only once.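 Briefly, cells in 96-well plates were exposed to five compound concentrations for 48 h, and endpoints were estimated by linear interpolation. GI50: concentration for 50% inhibition of growth. TGI: total growth inhibition.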

Some test systems named below: KM12 colon; EKVX NSCLC; SK-MEL-2 melanoma; 786-0 renal; HS 578T breast; HCT-116 colon; A498 renal; OVCAR-5 ovarian; SNB-75 CNS; K-562 leukemia.
Holding throughout (experiment): NCI anticancer screen, dose series, 48 h

Consider `C#CC(=O)OCC#CCOC(=O)C#C`, for which the TGI was determined as 44 µM in the assay with KM12 colon; 29.9 µM in the assay with EKVX NSCLC; 40.1 µM in the assay with SK-MEL-2 melanoma; 31.4 µM in the assay with 786-0 renal; 86.5 µM with HS 578T breast; 35.7 µM in the assay with HCT-116 colon. In addition, in the assay on A498 renal, the TGI is over 100 µM.
With `COc1ccc(-c2nc(-c3nc4ccc(C(F)(F)F)cc4[nH]3)c3ccccn23)cc1`, the GI50 in the assay on KM12 colon was 36.4 µM; with OVCAR-5 ovarian, over 100 µM; with SNB-75 CNS, 48.1 µM; in the assay with SK-MEL-2 melanoma it was over 100 µM; in the assay on 786-0 renal it was over 100 µM; in the assay with K-562 leukemia it was 35.3 µM. Also, the GI50 with HS 578T breast was over 100 µM; with HCT-116 colon it was 26.1 µM; in the assay on A498 renal, over 100 µM. Besides, the TGI in the assay with KM12 colon, in the assay on OVCAR-5 ovarian, in the assay with SNB-75 CNS, in the assay with SK-MEL-2 melanoma, in the assay with 786-0 renal and in the assay with K-562 leukemia was over 100 µM throughout. Further, the TGI in the assay with HS 578T breast, with HCT-116 colon and in the assay with A498 renal was over 100 µM throughout.
With `CC(=O)NC1=C(Sc2ccc(Cl)cc2)C(=O)c2ccccc2C1=O`, the TGI with KM12 colon was found to be 16.6 µM; with EKVX NSCLC, 18.9 µM; with OVCAR-5 ovarian it was 23.9 µM; in the assay with SK-MEL-2 melanoma, 16 µM; in the assay with 786-0 renal, 4.16 µM; in the assay with K-562 leukemia, 5.41 µM. For the same compound, the values for the TGI with HS 578T breast and in the assay on A498 renal were 61.6 µM and 16.4 µM, respectively.
For the compound `CCN(Cc1cccc(F)c1F)c1ccc(CO)c(Cl)c1`, the GI50 in the assay with KM12 colon was 15.8 µM; with OVCAR-5 ovarian, 0.058 µM; in the assay on SNB-75 CNS, 12.4 µM; with SK-MEL-2 melanoma, 4.68 µM; in the assay with 786-0 renal, 13.6 µM; in the assay with K-562 leukemia, 0.683 µM. Besides, the results for the GI50 in the assay on HS 578T breast, with HCT-116 colon and with A498 renal were 17.9 µM, 0.067 µM and 0.0217 µM, respectively. The TGI in the assay with KM12 colon was determined as 31.6 µM; in the assay with OVCAR-5 ovarian, 0.228 µM; in the assay on SNB-75 CNS it was 40.5 µM; in the assay on SK-MEL-2 melanoma, 22.6 µM; with 786-0 renal, 32.2 µM; in the assay with K-562 leukemia, 29.3 µM. Also, the values for the TGI in the assay with HS 578T breast, in the assay on HCT-116 colon and in the assay with A498 renal were 48.7 µM, 11.2 µM and 0.102 µM, respectively.
Turning to `Cc1cc(S(N)(=O)=O)c(S/C(=N\Nc2ccc([N+](=O)[O-])cc2)c2ccc3ccccc3c2)cc1Cl`, the GI50 in the assay on KM12 colon is 25.2 µM; in the assay on EKVX NSCLC, 17.9 µM; in the assay with OVCAR-5 ovarian, 14.8 µM; in the assay on SNB-75 CNS, 56.7 µM; with SK-MEL-2 melanoma, over 100 µM; in the assay on 786-0 renal it was 18.7 µM. Further, the GI50 is 28 µM in the assay with K-562 leukemia, 2.19 µM in the assay with HS 578T breast and 4.67 µM with HCT-116 colon. Further, the TGI with KM12 colon is 99 µM; in the assay on EKVX NSCLC, 64.3 µM; with OVCAR-5 ovarian, 27.9 µM; in the assay on SNB-75 CNS, over 100 µM; in the assay on SK-MEL-2 melanoma, over 100 µM; in the assay with 786-0 renal, 42.9 µM. In addition, the TGI is over 100 µM in the assay on K-562 leukemia, 8.86 µM in the assay with HS 578T breast and over 100 µM in the assay with HCT-116 colon.
As for `O=C(Nc1cccc(-n2cc(-c3ccncc3)c(-c3ccc(O)c(Cl)c3)n2)c1)c1ccc(Cl)c(Cl)c1`, the GI50 in the assay with KM12 colon is 5.44 µM; in the assay on OVCAR-5 ovarian it was 39.5 µM; in the assay with SNB-75 CNS, 0.977 µM; in the assay on SK-MEL-2 melanoma, 11.6 µM; in the assay on 786-0 renal it was 5.49 µM; in the assay with K-562 leukemia, 3.48 µM. The GI50 is 2.82 µM with HS 578T breast, 5.95 µM with HCT-116 colon and 1.94 µM in the assay with A498 renal. In addition, the TGI with KM12 colon is over 100 µM; with OVCAR-5 ovarian it was over 100 µM; in the assay on SNB-75 CNS, 18.4 µM; in the assay with SK-MEL-2 melanoma, 38.6 µM; with 786-0 renal, 94.3 µM; in the assay on K-562 leukemia, over 100 µM. The TGI was over 100 µM with HS 578T breast, over 100 µM with HCT-116 colon and 89.9 µM in the assay with A498 renal.
Regarding `O=C1N[C@H]2[C@H](O)[C@H](O)[C@@H](O)[C@H](O)[C@@H]2c2cc3c(c(O)c21)OCO3`, the GI50 in the assay on KM12 colon is 0.234 µM; in the assay on OVCAR-5 ovarian, 0.657 µM and 1.16 µM; in the assay with SNB-75 CNS, 0.257 µM and 1.14 µM; with SK-MEL-2 melanoma, 0.266 µM; with 786-0 renal, 0.324 µM and 0.0396 µM; in the assay with K-562 leukemia it was 0.216 µM and 0.214 µM. For the same compound, the GI50 is 0.021 µM and 0.0403 µM in the assay with HS 578T breast; 0.129 µM and 0.253 µM in the assay on HCT-116 colon; 0.23 µM and 0.796 µM with A498 renal. The TGI with KM12 colon was 2.8 µM and 0.41 µM; in the assay on OVCAR-5 ovarian, 9.37 µM and 1.22 µM; with HS 578T breast, 0.0941 µM and 0.0978 µM; in the assay with HCT-116 colon, 0.682 µM and 1.42 µM and 0.144 µM.
In the case of `C[C@]12CC[C@@H]3c4ccc(O)cc4CC[C@H]3[C@@H]1CC[C@@H]2NS(=O)(=O)c1ccc2ccccc2c1`, the GI50 was 1.92 µM with KM12 colon; 3.4 µM in the assay with OVCAR-5 ovarian; 2.1 µM in the assay on SNB-75 CNS; 2.75 µM in the assay on SK-MEL-2 melanoma; 2.96 µM in the assay on 786-0 renal; 3.42 µM in the assay on K-562 leukemia. The GI50 is 2.21 µM with HS 578T breast, 2.98 µM with HCT-116 colon and 1.72 µM with A498 renal. Besides, the TGI is 4.06 µM with KM12 colon; 13.4 µM in the assay on OVCAR-5 ovarian; 12.6 µM with SNB-75 CNS; 7.94 µM in the assay with SK-MEL-2 melanoma; 8.9 µM in the assay with 786-0 renal; over 100 µM with K-562 leukemia. The TGI was found to be 7.14 µM with HS 578T breast, 10.6 µM with HCT-116 colon and 4.01 µM with A498 renal.
With `COc1ccc(-c2nnc(Nc3nc(O)c(C4=c5cc(F)ccc5=NC4=O)s3)o2)cc1`, the GI50 in the assay on KM12 colon is 43.1 µM; in the assay on EKVX NSCLC, 96.1 µM; in the assay on OVCAR-5 ovarian, over 100 µM; with SK-MEL-2 melanoma, 33.7 µM; in the assay on 786-0 renal it was 23.4 µM; in the assay on K-562 leukemia, 37.1 µM. For the same compound, the results for the GI50 in the assay on HS 578T breast, in the assay on HCT-116 colon and with A498 renal were 69.1 µM, 20 µM and 41.7 µM, respectively. Also, the TGI in the assay on KM12 colon was over 100 µM; with EKVX NSCLC, over 100 µM; in the assay on OVCAR-5 ovarian, over 100 µM; in the assay on SK-MEL-2 melanoma, over 100 µM; in the assay on 786-0 renal it was 56.3 µM; with K-562 leukemia, over 100 µM. The TGI is over 100 µM in the assay on HS 578T breast, 42.7 µM with HCT-116 colon and over 100 µM in the assay on A498 renal.
As for `Clc1ccc(C2=NOC3C4CCC(C4)C23)cc1` (centres undefined), the TGI in the assay on KM12 colon, with EKVX NSCLC, in the assay with OVCAR-5 ovarian, with SNB-75 CNS, in the assay on SK-MEL-2 melanoma and with 786-0 renal was over 100 µM each time. Besides, the TGI in the assay on K-562 leukemia, with HCT-116 colon and in the assay with A498 renal was over 100 µM in each case.
On to `Cc1cn2c(/C=N/N=C(N)N)c(-c3ccsc3)nc2s1`, for which the GI50 in the assay on KM12 colon was 6.6 µM; with EKVX NSCLC, 13.8 µM; in the assay on OVCAR-5 ovarian, 15.1 µM; with SK-MEL-2 melanoma, 28.3 µM; in the assay on 786-0 renal, 5.89 µM; in the assay with K-562 leukemia it was 3.82 µM. Further, the values for the GI50 in the assay with HS 578T breast, in the assay with HCT-116 colon and in the assay with A498 renal were 13 µM, 3.14 µM and 28.3 µM, respectively. In addition, the TGI is 29.9 µM with KM12 colon; 27.4 µM in the assay with EKVX NSCLC; 28.7 µM in the assay on OVCAR-5 ovarian; over 100 µM in the assay with SK-MEL-2 melanoma; 19.7 µM in the assay on 786-0 renal; over 100 µM in the assay with K-562 leukemia. In addition, the TGI in the assay with HS 578T breast is 37.8 µM; in the assay with HCT-116 colon, 12.6 µM; in the assay with A498 renal, 43.3 µM.
Turning to `O=C(Sc1sc(=S)sc1SC(=O)c1ccccc1)c1ccccc1`, the TGI with KM12 colon is over 100 µM; in the assay with EKVX NSCLC, over 100 µM; with OVCAR-5 ovarian, over 100 µM; in the assay with SNB-75 CNS, 78.3 µM; in the assay on SK-MEL-2 melanoma, over 100 µM; in the assay on 786-0 renal, over 100 µM. Moreover, the values for the TGI with K-562 leukemia, in the assay on HCT-116 colon and with A498 renal were over 100 µM, over 100 µM and 78 µM, respectively.
Take `Cc1ccc2c(CC(=O)O)cc(=O)oc2c1`: the TGI with KM12 colon, with EKVX NSCLC, with OVCAR-5 ovarian, in the assay with SNB-75 CNS, with SK-MEL-2 melanoma and in the assay on 786-0 renal was over 100 µM each time. Also, the TGI in the assay with K-562 leukemia, in the assay on HCT-116 colon and with A498 renal was over 100 µM in each case.
For `O=S(=O)(NCCO)c1cc[c]([Sb](=[O])([OH])[OH])cc1`, the GI50 in the assay with KM12 colon, with EKVX NSCLC, in the assay with OVCAR-5 ovarian, with SK-MEL-2 melanoma, in the assay with 786-0 renal and in the assay on K-562 leukemia was over 100 µM each time. Further, the GI50 in the assay on HS 578T breast, in the assay on HCT-116 colon and with A498 renal was over 100 µM throughout. Also, the TGI with KM12 colon, in the assay with EKVX NSCLC, in the assay on OVCAR-5 ovarian, with SK-MEL-2 melanoma, in the assay with 786-0 renal and in the assay on K-562 leukemia was over 100 µM in each case. The TGI with HS 578T breast, in the assay with HCT-116 colon and in the assay with A498 renal was over 100 µM each time.
